Source: ChEMBL document CHEMBL3124840, “Chemical composition of the bark of Tetrapterys mucronata and identification of acetylcholinesterase inhibitory constituents” (J Nat Prod, 2014)
pIC50: −log10 of the molar value.

Biological target: Acetylcholinesterase (Electrophorus electricus, UniProt O42275)
Sequence (O42275 whole entry): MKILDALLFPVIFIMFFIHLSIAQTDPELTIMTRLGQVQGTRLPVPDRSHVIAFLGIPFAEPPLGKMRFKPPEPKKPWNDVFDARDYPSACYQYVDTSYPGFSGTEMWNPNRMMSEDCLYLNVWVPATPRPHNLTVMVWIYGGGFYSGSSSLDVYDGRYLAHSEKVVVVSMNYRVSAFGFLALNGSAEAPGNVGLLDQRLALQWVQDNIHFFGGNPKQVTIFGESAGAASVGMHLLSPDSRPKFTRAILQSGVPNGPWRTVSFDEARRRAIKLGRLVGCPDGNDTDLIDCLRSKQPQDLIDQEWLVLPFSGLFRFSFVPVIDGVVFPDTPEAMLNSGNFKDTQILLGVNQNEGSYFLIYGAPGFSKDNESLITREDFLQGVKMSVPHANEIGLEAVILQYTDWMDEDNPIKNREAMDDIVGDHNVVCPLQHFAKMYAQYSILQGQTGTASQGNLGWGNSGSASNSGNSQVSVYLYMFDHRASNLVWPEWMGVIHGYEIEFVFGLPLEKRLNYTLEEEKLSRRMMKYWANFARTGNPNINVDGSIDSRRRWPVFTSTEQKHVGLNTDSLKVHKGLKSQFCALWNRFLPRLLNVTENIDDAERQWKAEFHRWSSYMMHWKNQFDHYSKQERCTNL
Description: Inhibition of Electric eel AChE assessed as amount of thiocholine released using acetylthiocholine iodide as substrate after 6 mins by Ellman's method

| Compound | pIC50 |
| --- | --- |
| COc1ccc2[nH]cc(CCN(C)C)c2c1 [MEBUFOTENIN] | 4.85 |
| CN(C)CCc1c(C(c2c[nH]c3ccccc23)C(O)CO)[nH]c2ccc(O)cc12 (stereo not given) | 4.93 |
| NCCc1c(C(c2c[nH]c3ccccc23)C(O)CO)[nH]c2ccc(O)cc12 (stereo not given) | 4.90 |
| CN(C)CCc1c[nH]c2ccc(O)cc12 [BUFOTENINE] | 4.94 |
| CNCCc1c[nH]c2ccc(OC)cc12 | 4.90 |
